Reference: ChEMBL document CHEMBL1134790, “Design, synthesis, and evaluation of novel A2A adenosine receptor agonists” (J Med Chem, 2001)

Tests used:
Adenosine receptor A2a = Adenosine receptor A2a (Rattus norvegicus, UniProt P30543); experiment: biochemical
Description: Binding affinity towards adenosine A2A receptor in rat brain striatum

Adenosine receptor A1 = biological target: T1, Adenosine receptor A1 (Rattus norvegicus, UniProt P25099); experiment: biochemical
T1 sequence (P25099 whole entry): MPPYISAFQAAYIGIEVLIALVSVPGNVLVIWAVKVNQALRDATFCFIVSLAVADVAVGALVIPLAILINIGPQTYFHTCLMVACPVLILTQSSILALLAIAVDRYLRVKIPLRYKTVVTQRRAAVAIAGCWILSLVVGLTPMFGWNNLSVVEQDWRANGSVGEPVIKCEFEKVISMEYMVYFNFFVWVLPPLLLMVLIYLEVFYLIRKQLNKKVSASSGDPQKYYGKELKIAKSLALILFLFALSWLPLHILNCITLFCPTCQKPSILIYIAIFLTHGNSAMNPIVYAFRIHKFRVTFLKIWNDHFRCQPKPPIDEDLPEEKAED
Description: Binding affinity towards adenosine A1 receptor in rat brain cortex

Adenosine receptor A2a, sequence (P30543 whole entry): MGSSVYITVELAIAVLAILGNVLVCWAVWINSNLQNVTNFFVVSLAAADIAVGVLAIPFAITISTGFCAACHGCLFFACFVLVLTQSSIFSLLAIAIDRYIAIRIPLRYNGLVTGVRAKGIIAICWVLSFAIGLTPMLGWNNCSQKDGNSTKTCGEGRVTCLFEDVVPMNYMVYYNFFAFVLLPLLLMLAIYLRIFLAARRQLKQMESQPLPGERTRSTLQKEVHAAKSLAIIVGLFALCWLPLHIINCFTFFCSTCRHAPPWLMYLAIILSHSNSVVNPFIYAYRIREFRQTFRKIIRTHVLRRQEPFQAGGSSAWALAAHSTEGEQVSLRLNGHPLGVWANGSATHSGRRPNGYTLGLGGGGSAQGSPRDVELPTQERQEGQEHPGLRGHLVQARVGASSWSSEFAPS

Row | SMILES | Ki (Adenosine receptor A2a) [nM] | Ki (Adenosine receptor A1) [nM]
1 | Nc1nc(OC2CCCC2)nc2c1ncn2[C@@H]1O[C@H](CO)[C@@H](O)[C@H]1O | 1000 | 14000
2 | Nc1nc(C#CCCc2ccccc2)nc2c1ncn2[C@@H]1O[C@H](CO)[C@@H](O)[C@H]1O | 37 | 
3 | Nc1nc(C#CC2CCCC2)nc2c1ncn2[C@@H]1O[C@H](CO)[C@@H](O)[C@H]1O | 12 | 
4 | CC(C)(C)OC(=O)C1CCCN1C[C@@H](O)[C@H](Cc1ccccc1)NC(=O)[C@H](CC(N)=O)NC(=O)OCc1ccccc1 (some centres undefined) | 2.2 | 130
5 | C[C@@H](CCOc1nc(N)c2ncn(C3O[C@H](CO)[C@H](O)[C@@H]3O)c2n1)c1ccccc1 (some centres undefined) | 1700 | 1600
6 | Nc1nc(OCCc2ccccc2)nc2c1ncn2[C@@H]1O[C@H](CO)[C@@H](O)[C@H]1O | 17 | 130
7 | Nc1nc(C#Cc2ccccc2)nc2c1ncn2[C@@H]1O[C@H](CO)[C@@H](O)[C@H]1O | 109 | 
8 | Nc1nc(OCCCCc2ccccc2)nc2c1ncn2[C@@H]1O[C@H](CO)[C@@H](O)[C@H]1O | 170 | 2400
9 | Nc1nc(OCCC2CCCCC2)nc2c1ncn2[C@@H]1O[C@H](CO)[C@@H](O)[C@H]1O | 22 | 1600
10 | Nc1nc(OCCc2ccc(F)cc2)nc2c1ncn2[C@@H]1O[C@H](CO)[C@@H](O)[C@H]1O | 97 | 500
11 | CCNC(=O)[C@H]1OC(n2cnc3c(N)nc(NCCc4ccc(Cl)cc4)nc32)[C@H](O)[C@@H]1O (some centres undefined) | 7.5 | 
12 | COc1ccccc1CCOc1nc(N)c2ncn(C3O[C@H](CO)[C@@H](O)[C@H]3O)c2n1 (some centres undefined) | 36 | 190
13 | Nc1nc(OCC2CCCCC2)nc2c1ncn2C1O[C@H](CO)[C@@H](O)[C@H]1O (some centres undefined) | 3200 | 3000
14 | C#Cc1nc(N)c2ncn(C3O[C@H](CO)[C@@H](O)[C@H]3O)c2n1 (some centres undefined) | 37.6 | 
15 | COc1ccc(CCOc2nc(N)c3ncn(C4O[C@H](CO)[C@@H](O)[C@H]4O)c3n2)cc1OC (some centres undefined) | 40 | 380
16 | CCNC(=O)[C@H]1OC(n2cnc3c(N)nc(C#CNCc4ccccc4)nc32)[C@H](O)[C@@H]1O (some centres undefined) | 1130 | 8600
17 | COc1cc(CCOc2nc(N)c3ncn(C4O[C@H](CO)[C@@H](O)[C@H]4O)c3n2)cc(OC)c1OC (some centres undefined) | 330 | 5000
18 | Nc1nc(CCO)nc2c1ncn2C1O[C@H](CO)[C@@H](O)[C@H]1O (some centres undefined) | 40.1 | 81.4
19 | Nc1nc(C#CCCC2CCCCC2)nc2c1ncn2C1O[C@H](CO)[C@@H](O)[C@H]1O (some centres undefined) | 26 | 
20 | Nc1nc(OCCc2ccccc2Cl)nc2c1ncn2C1O[C@H](CO)[C@@H](O)[C@H]1O (some centres undefined) | 56 | 520
21 | COCc1nc(N)c2ncn(C3O[C@H](CO)[C@@H](O)[C@H]3O)c2n1 (some centres undefined) | 88.1 | 38.1
22 | Cc1ccc(CCOc2nc(N)c3ncn(C4O[C@H](CO)[C@@H](O)[C@H]4O)c3n2)cc1 (some centres undefined) | 11 | 49
23 | COc1cccc(CCOc2nc(N)c3ncn(C4O[C@H](CO)[C@@H](O)[C@H]4O)c3n2)c1 (some centres undefined) | 320 | 760
24 | CCNC(=O)[C@H]1OC(n2cnc3c(N)nc(NCCc4ccc(OCC(=O)O)cc4)nc32)[C@H](O)[C@@H]1O (some centres undefined) | 42 | 

Row | SMILES | Ki (Adenosine receptor A2a) [nM] | Ki (Adenosine receptor A1) [nM]
25 | Nc1nc(OCc2ccccc2)nc2c1ncn2C1O[C@H](CO)[C@@H](O)[C@H]1O (some centres undefined) | 2200 | 600
26 | Nc1nc(CO)nc2c1ncn2C1O[C@H](CO)[C@@H](O)[C@H]1O (some centres undefined) | 20.5 | 10.1
27 | CCNC(=O)[C@H]1OC(n2cnc3c(N)nc(CC4CCC(COC(C)=O)CC4)nc32)[C@H](O)[C@@H]1O (some centres undefined) | 6.2 | 14
28 | Nc1nc(OCCc2cccc(Cl)c2)nc2c1ncn2C1O[C@H](CO)[C@@H](O)[C@H]1O (some centres undefined) | 76 | 250
29 | CCNC(=O)[C@H]1OC(n2cnc3c(N)nc(C#CNCCc4ccccc4)nc32)[C@H](O)[C@@H]1O (some centres undefined) | 9.7 | 473
30 | Nc1nc(C#CC2CCCCC2)nc2c1ncn2C1O[C@H](CO)[C@@H](O)[C@H]1O (some centres undefined) | 10 | 
31 | COc1ccc(CCOc2nc(N)c3ncn(C4O[C@H](CO)[C@@H](O)[C@H]4O)c3n2)cc1 (some centres undefined) | 32 | 480
32 | Nc1nc(C#CCCC2CCCC2)nc2c1ncn2C1O[C@H](CO)[C@@H](O)[C@H]1O (some centres undefined) | 3.4 | 
33 | Nc1nc(OCCCCCc2ccccc2)nc2c1ncn2C1O[C@H](CO)[C@@H](O)[C@H]1O (some centres undefined) | 53 | 960
34 | CCNC(=O)[C@H]1OC(n2cnc3c(N)nc(C#CNCCc4ccc(CC(=O)O)cc4)nc32)[C@H](O)[C@@H]1O (some centres undefined) | 45 | 4880
35 | Nc1nc(OCCCC2CCCCC2)nc2c1ncn2C1O[C@H](CO)[C@@H](O)[C@H]1O (some centres undefined) | 22 | 2800
36 | CCNC(=O)[C@H]1OC(n2cnc3c(N)nc(C#CN(C)CCc4ccccc4)nc32)[C@H](O)[C@@H]1O (some centres undefined) | 71 | 12100
37 | CCNC(=O)[C@H]1OC(n2cnc3c(N)nc(CC4CCC(C(=O)OC)CC4)nc32)[C@H](O)[C@@H]1O (some centres undefined) | 4.5 | 28.1
38 | CCNC(=O)[C@H]1OC(n2cnc3c(N)nc(C#CNCCc4ccc(CC(=O)OC)cc4)nc32)[C@H](O)[C@@H]1O (some centres undefined) | 9 | 1260
39 | CCNC(=O)[C@H]1OC(n2cnc3c(N)nc(CC4CCC(CO)CC4)nc32)[C@H](O)[C@@H]1O (some centres undefined) | 0.48 | 0.84
40 | CCNC(=O)[C@H]1OC(n2cnc3c(N)nc(C#CNCCc4ccc(F)cc4)nc32)[C@H](O)[C@@H]1O (some centres undefined) | 7.7 | 1180
41 | Nc1nc(Oc2ccccc2)nc2c1ncn2C1O[C@H](CO)[C@@H](O)[C@H]1O (some centres undefined) | 5700 | 3500
42 | Nc1nc(OCCC2CCCC2)nc2c1ncn2C1O[C@H](CO)[C@@H](O)[C@H]1O (some centres undefined) | 120 | 1600
43 | CC[C@H](COc1nc(N)c2ncn(C3O[C@H](CO)[C@@H](O)[C@H]3O)c2n1)c1ccccc1 (some centres undefined) | 430 | 2300
44 | CCNC(=O)[C@H]1OC(n2cnc3c(N)nc(CC4CCC(C(=O)O)CC4)nc32)[C@H](O)[C@@H]1O (some centres undefined) | 20.1 | 292
45 | Nc1nc(OCCc2cccc(F)c2)nc2c1ncn2[C@@H]1O[C@H](CO)[C@@H](O)[C@H]1O (stereo in doubt; 24) | 58 | 150
46 | Nc1nc(OCCc2cccc(F)c2)nc2c1ncn2[C@@H]1O[C@H](CO)[C@@H](O)[C@H]1O (stereo in doubt; 92) | 110 | 180
47 | Nc1nc(OCCc2ccc(Cl)cc2)nc2c1ncn2[C@@H]1O[C@H](CO)[C@@H](O)[C@H]1O [SONEDENOSON] | 22 | 89

Further lines, results first:

Row | Ki (Adenosine receptor A2a) [nM] | Ki (Adenosine receptor A1) [nM] | SMILES
48 | 5.4 |  | CCCCCC#Cc1nc(N)c2ncn([C@@H]3O[C@H](CO)[C@@H](O)[C@H]3O)c2n1
49 | 1500 | 1300 | CCOc1nc(N)c2ncn([C@@H]3O[C@H](CO)[C@@H](O)[C@H]3O)c2n1
50 | 1200 | 3600 | Nc1nc(OCCCc2ccccc2)nc2c1ncn2[C@@H]1O[C@H](CO)[C@@H](O)[C@H]1O
51 | 21.2 | 186 | CCc1nc(N)c2ncn(C3O[C@H](CO)[C@@H](O)[C@H]3O)c2n1 (some centres undefined)
52 | 360 | 1200 | CCCOc1nc(N)c2ncn(C3O[C@H](CO)[C@@H](O)[C@H]3O)c2n1 (some centres undefined)
53 | 7.5 | 154 | CCCc1nc(N)c2ncn(C3O[C@H](CO)[C@@H](O)[C@H]3O)c2n1 (some centres undefined)
54 | 530 | 1490 | CCC(CC)CCOc1nc(N)c2ncn(C3O[C@H](CO)[C@@H](O)[C@H]3O)c2n1 (some centres undefined)
55 | 160 | 890 | CCCCCCOc1nc(N)c2ncn(C3O[C@H](CO)[C@@H](O)[C@H]3O)c2n1 (some centres undefined)
56 | 7400 | 20000 | CC(C)Oc1nc(N)c2ncn(C3O[C@H](CO)[C@@H](O)[C@H]3O)c2n1 (some centres undefined)
57 | 18 | 1100 | Nc1nc(OCCCCC2CCCCC2)nc2c1ncn2C1O[C@H](CO)[C@@H](O)[C@H]1O (some centres undefined)
58 | 12.1 | 202 | CCCCCCc1nc(N)c2ncn(C3O[C@H](CO)[C@@H](O)[C@H]3O)c2n1 (some centres undefined)
59 | 12.8 | 244 | CCOCCCc1nc(N)c2ncn(C3O[C@H](CO)[C@@H](O)[C@H]3O)c2n1 (some centres undefined)
60 | 130 | 2100 | CC(C)CCCOc1nc(N)c2ncn(C3O[C@H](CO)[C@@H](O)[C@H]3O)c2n1 (some centres undefined)
61 | 10.6 |  | CCCOCc1nc(N)c2ncn(C3O[C@H](CO)[C@@H](O)[C@H]3O)c2n1 (some centres undefined)
62 | 700 | 2600 | CC(C)COc1nc(N)c2ncn(C3O[C@H](CO)[C@@H](O)[C@H]3O)c2n1 (some centres undefined)
63 | 10.2 | 128 | CCCOCCc1nc(N)c2ncn(C3O[C@H](CO)[C@@H](O)[C@H]3O)c2n1 (some centres undefined)
64 | 4600 | 2700 | CCC(CC)COc1nc(N)c2ncn(C3O[C@H](CO)[C@@H](O)[C@H]3O)c2n1 (some centres undefined)
65 | 61 | 140 | Cc1cccc(CCOc2nc(N)c3ncn(C4O[C@H](CO)[C@@H](O)[C@H]4O)c3n2)c1 (some centres undefined)
66 | 39 | 450 | Cc1ccccc1CCOc1nc(N)c2ncn(C3O[C@H](CO)[C@@H](O)[C@H]3O)c2n1 (some centres undefined)
67 | 270 | 2500 | CCCCOc1nc(N)c2ncn(C3O[C@H](CO)[C@@H](O)[C@H]3O)c2n1 (some centres undefined)
68 | 2.8 | 126 | CCCCc1nc(N)c2ncn(C3O[C@H](CO)[C@@H](O)[C@H]3O)c2n1 (some centres undefined)
69 | 690 | 72 | Nc1nc(OCCO)nc2c1ncn2C1O[C@H](CO)[C@@H](O)[C@H]1O (some centres undefined)
70 | 150 | 460 | CCCCCOc1nc(N)c2ncn(C3O[C@H](CO)[C@@H](O)[C@H]3O)c2n1 (some centres undefined)
